{"source": "the supplement of paper PMC10307832", "test_in_all_cases": "relative viability (nuclei count vs DMSO), 5 days (fraction); higher = more cells survive", "key": {"MLN4924 + Phenformin": {"compound": "NS(=O)(=O)OC[C@@H]1C[C@@H](n2ccc3c(N[C@H]4CCc5ccccc54)ncnc32)C[C@@H]1O [MLN4924] + N=C(N)NC(=N)NCCc1ccccc1 [Phenformin] (partner 250 µM)", "summary_of_the_method": "(§1)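 Lung cancer cell lines were pin-tool dosed in 1536-well plates on the day after seeding, with either a lone drug or a fixed anchor-drug dose plus five library-drug doses (not always all listed) in √10 steps. Nuclei were counted on 4× images after 5 days. Relative viability is the ratio of treated-well to vehicle-well nuclei counts, with each value a median of duplicate plates.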"}, "Carboplatin + Bortezomib": {"compound": "C1CC(C1)(C(=O)O)C(=O)O.[NH2-].[NH2-].[Pt+2] [Carboplatin] + CC(C)C[C@H](NC(=O)[C@H](Cc1ccccc1)NC(=O)c1cnccn1)B(O)O [Bortezomib] (partner 0.002 µM)", "summary_of_the_method": "as §1"}, "[1]": {"compound": "C1CC(C1)(C(=O)O)C(=O)O.[NH2-].[NH2-].[Pt+2] [Carboplatin] + CC(=O)c1c(C)c2cnc(Nc3ccc(N4CCNCC4)cn3)nc2n(C2CCCC2)c1=O [Palbociclib] (partner 0.5 µM)", "summary_of_the_method": "as §1"}, "Carboplatin + Dasatinib": {"compound": "C1CC(C1)(C(=O)O)C(=O)O.[NH2-].[NH2-].[Pt+2] [Carboplatin] + Cc1nc(Nc2ncc(C(=O)Nc3c(C)cccc3Cl)s2)cc(N2CCN(CCO)CC2)n1 [Dasatinib] (partner 0.075 µM)", "summary_of_the_method": "as §1"}}, "data": [{"cell line": "UMC-11", "values": [{"measurement": "relative viability", "setting": "MLN4924 + Phenformin; first compound 0.04 µM", "result": 0.322}, {"measurement": "relative viability", "setting": "MLN4924 + Phenformin; first compound 0.1265 µM", "result": 0.287}, {"measurement": "relative viability", "setting": "MLN4924 + Phenformin; first compound 0.4 µM", "result": 0.266}, {"measurement": "relative viability", "setting": "MLN4924 + Phenformin; first compound 1.265 µM", "result": 0.185}, {"measurement": "relative viability", "setting": "MLN4924 + Phenformin; first compound 4 µM", "result": 0.189}, {"measurement": "relative viability", "setting": "Carboplatin + Bortezomib; first compound 0.08 µM", "result": 0.941}, {"measurement": "relative viability", "setting": "Carboplatin + Bortezomib; first compound 0.253 µM", "result": 0.904}, {"measurement": "relative viability", "setting": "Carboplatin + Bortezomib; first compound 0.8 µM", "result": 0.675}, {"measurement": "relative viability", "setting": "Carboplatin + Bortezomib; first compound 2.53 µM", "result": 0.622}, {"measurement": "relative viability", "setting": "Carboplatin + Bortezomib; first compound 8 µM", "result": 0.382}, {"measurement": "relative viability", "setting": "[1]; first compound 0.08 µM", "result": 0.314}, {"measurement": "relative viability", "setting": "[1]; first compound 0.253 µM", "result": 0.348}, {"measurement": "relative viability", "setting": "[1]; first compound 0.8 µM", "result": 0.275}, {"measurement": "relative viability", "setting": "[1]; first compound 2.53 µM", "result": 0.301}, {"measurement": "relative viability", "setting": "[1]; first compound 8 µM", "result": 0.339}, {"measurement": "relative viability", "setting": "Carboplatin + Dasatinib; first compound 0.08 µM", "result": 0.515}, {"measurement": "relative viability", "setting": "Carboplatin + Dasatinib; first compound 0.253 µM", "result": 0.501}, {"measurement": "relative viability", "setting": "Carboplatin + Dasatinib; first compound 0.8 µM", "result": 0.461}, {"measurement": "relative viability", "setting": "Carboplatin + Dasatinib; first compound 2.53 µM", "result": 0.502}, {"measurement": "relative viability", "setting": "Carboplatin + Dasatinib; first compound 8 µM", "result": 0.491}]}]}
